Assay results published in patent EP1614683B1, “Indazole compounds and pharmaceutical compositions for inhibiting protein kinases, and methods for their use” (priority 1999, dated 2001).
Values joined by “and” are separate entries in the source; they are usually repeats but may differ in a detail not shown here. Equal entries are not always repeated. Where two headings read alike, the source gives them in different places.

Key:
in vitro = in vitro ADME, human; details: human, microsomes, 2 h, 5 µM
Summary of the method: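 HLM diluted to 5 mg/mL in 100 mM KPO4, preincubated 10 min at 37 °C with NADPH-regenerating system. Compound (5 µM final) incubated at 37 °C in triplicate, sampled at 0 and 2 h into ice-cold acetonitrile, then LC-MS analysis.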

[1] = target: T1, unphosphorylated VEGF-R2Δ50 (Homo sapiens, UniProt P35968, DEL940-989/E990V); details: Table 1; for FLVK ** (% inhibition): compound concentration 50 nM; for Ki: read-out: FLVK ** (Ki)
T1 sequence (P35968 with tags, fused parts or gaps DEL940-989/E990V limits assumed): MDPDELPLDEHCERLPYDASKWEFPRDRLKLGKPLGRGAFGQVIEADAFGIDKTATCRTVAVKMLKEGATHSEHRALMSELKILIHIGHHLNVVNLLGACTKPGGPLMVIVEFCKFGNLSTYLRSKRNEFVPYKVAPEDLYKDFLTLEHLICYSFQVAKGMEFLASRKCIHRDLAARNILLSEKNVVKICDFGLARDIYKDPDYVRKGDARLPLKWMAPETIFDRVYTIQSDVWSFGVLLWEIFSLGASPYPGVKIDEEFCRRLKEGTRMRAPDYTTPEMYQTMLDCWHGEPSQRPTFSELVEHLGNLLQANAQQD

LCK tyrosine kinase = LCK tyrosine kinase (Homo sapiens, UniProt P06239, C224D/P223M); assay: LCK spectrophotometric assay; type: biochemical
LCK tyrosine kinase, sequence (P06239 223-509 P223M/C224D): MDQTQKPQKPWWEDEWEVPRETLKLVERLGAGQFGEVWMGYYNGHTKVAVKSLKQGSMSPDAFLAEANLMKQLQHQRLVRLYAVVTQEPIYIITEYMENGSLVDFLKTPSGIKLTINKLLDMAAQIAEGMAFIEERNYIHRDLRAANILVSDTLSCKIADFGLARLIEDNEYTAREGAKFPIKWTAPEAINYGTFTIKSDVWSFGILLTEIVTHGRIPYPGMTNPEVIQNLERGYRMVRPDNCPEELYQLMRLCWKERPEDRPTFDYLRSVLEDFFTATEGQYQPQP
Protocol: The spectrophotometric assay was carried out as described above for VEGF-R2, except for the following changes in concentration: LCK = 60 nM, MgCl2 = 0 mM, poly(E4Y1) = 20 mM.

CDK2/Cyclin A complex = CDK2/Cyclin A complex (Homo sapiens, UniProt P24941); assay: CDK2/Cyclin A assay ([32P]ATP incorporation into Rb fragment); type: biochemical; details: Table 1; read-out: CDK2 * (Ki, cell in µM)
human FAK (FAKcd409) = target: T2, human FAK (FAKcd409) (Homo sapiens, UniProt Q05397, P410T); assay: FAK fluorescence polarization assay; type: biochemical; details: read-out: % Inhibition FAK, compound tested at 10 µM
T2 construct: comprises residues methionine 409 to glutamate 689; made in house; host or cells: baculovirus vector expression system (insect cells)
T2 sequence (Q05397 409-689 P410T): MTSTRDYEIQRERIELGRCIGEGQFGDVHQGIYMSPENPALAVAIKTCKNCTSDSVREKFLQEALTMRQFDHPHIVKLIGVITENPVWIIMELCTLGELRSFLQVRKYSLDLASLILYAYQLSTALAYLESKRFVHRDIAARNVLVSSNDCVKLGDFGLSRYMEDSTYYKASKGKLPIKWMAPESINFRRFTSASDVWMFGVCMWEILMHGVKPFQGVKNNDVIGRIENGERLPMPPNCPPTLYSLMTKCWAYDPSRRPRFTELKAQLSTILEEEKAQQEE
Protocol: FAK Construct for Assay. The catalytic domain of human FAK (FAKcd409) was expressed using the baculovirus vector expression system. […] The protein was purified using classical chromatography techniques.
FAK HTS utilized the fluorescence polarization assay provided by LJL Biosystems. The kinase reaction contained: 100mM Hepes pH 7.5, 10mM MgCl2, 1mM DTT, 1mM ATP, and 1mg/ml poly Glu-Tyr (4: 1). The reaction is initiated by the addition of 5nM FAKcd409. The reaction is terminated by the addition of EDTA followed by addition of fluor-labelled peptide and anti-phosphotyrosine antibody, both provided by LJL Biosystems. Inhibition results are read on a Analyst (LJL) detector.

[2] = target: T3, phosphorylated Tie-2 (aa 775-1122) (Homo sapiens, UniProt Q02763); assay: TIE-2 spectrophotometric assay; type: biochemical; details: read-out: % Inhibition Tie2-P, compound tested at 10 µM
T3 construct: 4 to 12 nM phosphorylated Tie-2 (aa 775-1122); made in house; host or cells: insect cells
T3 sequence (Q02763 775-1122): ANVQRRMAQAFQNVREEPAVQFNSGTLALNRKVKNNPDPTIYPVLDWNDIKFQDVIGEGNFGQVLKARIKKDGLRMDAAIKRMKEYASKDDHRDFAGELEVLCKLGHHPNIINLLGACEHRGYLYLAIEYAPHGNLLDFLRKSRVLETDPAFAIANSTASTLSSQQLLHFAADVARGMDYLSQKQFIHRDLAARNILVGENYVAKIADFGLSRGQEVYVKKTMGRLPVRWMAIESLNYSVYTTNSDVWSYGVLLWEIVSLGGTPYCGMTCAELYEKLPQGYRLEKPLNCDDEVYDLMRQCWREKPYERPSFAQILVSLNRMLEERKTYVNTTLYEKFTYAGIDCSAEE
Summary of the method: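 Human phosphorylated Tie-2 kinase activity was measured spectrophotometrically by coupling ADP formation, from phosphoryl transfer to poly(Glu4 Tyr), to NADH oxidation via pyruvate kinase and lactate dehydrogenase. Absorbance loss at 340 nm was read on a Beckman DU650. Reactions held 1 mM phosphoenolpyruvate, 0.24 mM NADH, 40 mM MgCl2, 5 mM DTT, 0.5 mM ATP, and 15 units/mL each of PK and LDH in 100 mM HEPES, pH 7.5.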

[3] = test system: human umbilical vein endothelial cells (HUVEC); assay: HUVEC proliferation assay (VEGF-stimulated, MTT); type: cell-based; details: read-out: HUVEC IC50
CDK4/Cyclin D3 complex [4] = target: T4, CDK4/Cyclin D3 complex (Homo sapiens, UniProt P11802)
T4 sequence (P11802 whole entry): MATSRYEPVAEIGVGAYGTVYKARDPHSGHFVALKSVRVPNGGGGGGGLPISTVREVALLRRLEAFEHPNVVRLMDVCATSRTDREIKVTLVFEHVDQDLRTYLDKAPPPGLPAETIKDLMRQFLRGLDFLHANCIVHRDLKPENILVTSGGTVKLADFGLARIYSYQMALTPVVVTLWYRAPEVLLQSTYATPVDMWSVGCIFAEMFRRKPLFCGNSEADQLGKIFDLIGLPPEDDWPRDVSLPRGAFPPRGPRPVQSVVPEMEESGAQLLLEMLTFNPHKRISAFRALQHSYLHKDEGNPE
T4 sequence (P30281 whole entry partner): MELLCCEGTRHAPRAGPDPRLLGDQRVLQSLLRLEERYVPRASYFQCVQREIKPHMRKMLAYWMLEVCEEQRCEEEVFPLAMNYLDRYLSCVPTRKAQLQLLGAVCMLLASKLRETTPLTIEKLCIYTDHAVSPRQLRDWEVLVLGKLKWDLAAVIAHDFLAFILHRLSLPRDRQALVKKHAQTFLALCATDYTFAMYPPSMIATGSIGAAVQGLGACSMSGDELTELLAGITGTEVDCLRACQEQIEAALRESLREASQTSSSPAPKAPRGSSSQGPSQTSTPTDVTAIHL

HCT-116 = HCT-116 cell assay (Table 2); type: cell-based; details: Homo sapiens
human FGF-R1 = human FGF-R1 (Homo sapiens, UniProt P11362, C488A/C584S/L457V); assay: FGF-R spectrophotometric assay; type: biochemical
human FGF-R1, sequence (P11362 456-766 L457V/C488A/C584S): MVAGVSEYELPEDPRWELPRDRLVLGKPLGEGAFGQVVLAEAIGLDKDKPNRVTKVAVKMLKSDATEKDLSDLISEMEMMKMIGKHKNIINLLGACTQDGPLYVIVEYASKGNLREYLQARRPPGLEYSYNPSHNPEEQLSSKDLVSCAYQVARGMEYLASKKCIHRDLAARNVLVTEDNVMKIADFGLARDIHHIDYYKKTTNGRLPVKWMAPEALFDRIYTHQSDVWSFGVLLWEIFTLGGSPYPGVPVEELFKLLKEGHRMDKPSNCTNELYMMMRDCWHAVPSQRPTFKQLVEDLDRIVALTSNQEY
Protocol: The spectrophotometric assay was carried out as described above for VEGF-R2, except for the following changes in concentration: FGF-R = 50 nM, ATP = 2 mM, and poly(E4Y1) =15 mM.

[5] = mouse, in vivo, pH 2.3
human CHK1 (FL-CHK1) = target: T5, human CHK1 (FL-CHK1) (Homo sapiens, UniProt O14757); assay: CHK1 coupled spectrophotometric assay; type: biochemical
T5 construct: C-terminally His-tagged full-length human CHK1 (FL-CHK1) was expressed using the baculovirus/insect cell system; made in house; host or cells: baculovirus/insect cell system
T5 sequence (O14757 1-476): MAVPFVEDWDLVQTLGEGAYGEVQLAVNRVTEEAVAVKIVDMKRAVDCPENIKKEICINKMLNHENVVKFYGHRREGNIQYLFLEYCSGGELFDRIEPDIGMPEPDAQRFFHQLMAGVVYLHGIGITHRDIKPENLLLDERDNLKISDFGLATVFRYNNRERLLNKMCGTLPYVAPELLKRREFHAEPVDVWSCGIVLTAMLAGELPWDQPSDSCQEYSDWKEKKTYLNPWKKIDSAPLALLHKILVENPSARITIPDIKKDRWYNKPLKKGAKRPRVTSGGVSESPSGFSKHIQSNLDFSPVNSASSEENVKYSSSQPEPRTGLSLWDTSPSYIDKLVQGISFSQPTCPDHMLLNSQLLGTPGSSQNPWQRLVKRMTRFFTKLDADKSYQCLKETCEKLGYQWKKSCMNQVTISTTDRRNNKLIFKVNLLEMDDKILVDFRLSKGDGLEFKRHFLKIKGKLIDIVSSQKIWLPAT
Summary of the method: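 His-tagged full-length human CHK1 from baculovirus/insect cells, 10 nM, phosphorylating Syntide-2. ADP formation coupled via PK/LDH with PEP to NADH oxidation, followed as absorbance decrease at 340 nm. Ki from initial rates at varying compound concentrations.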

[6] = target: T6, truncated catalytic subunit (gamma subunit) of phosphorylase kinase (amino acids 1-298) (Oryctolagus cuniculus, UniProt P00518); assay: Phosphorylase kinase assay; type: biochemical; details: 10 µM of compound; phosphoryl transfer from ATP to phosphorylase b
T6 construct: (gamma subunit) of phosphorylase kinase (amino acids 1-298); made in house
T6 sequence (P00518 2-299 limits assumed): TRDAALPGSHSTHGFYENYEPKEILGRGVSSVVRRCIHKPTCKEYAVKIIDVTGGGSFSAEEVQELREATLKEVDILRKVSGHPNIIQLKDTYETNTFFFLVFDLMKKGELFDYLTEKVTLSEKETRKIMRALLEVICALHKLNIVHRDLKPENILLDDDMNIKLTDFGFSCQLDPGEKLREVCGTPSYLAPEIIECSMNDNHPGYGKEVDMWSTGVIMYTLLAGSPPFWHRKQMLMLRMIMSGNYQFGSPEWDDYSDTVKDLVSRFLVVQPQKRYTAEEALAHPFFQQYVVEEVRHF
Protocol: In the assay, the purified catalytic subunit is used to phosphorylate phosphorylase b using radiolabled ATP. Briefly, 1.5 mg/ml of phosphorylase b is incubated with 10 nM phosphorylase kinase in 10 mM MgCl2, 50 mM Hepes pH 7.4, at 37 °C. […] The reaction was terminated and proteins were precipitated by the addition of TCA to 10% final concentration. […] The filter plate was then extensively washed with 20% TCA, and dried. Scintilation fluid was then added to the plate and incorporated radiolabel was counted on a Wallac microbeta counter.

[7] = target: T1, unphosphorylated VEGF-R2Δ50; assay: biochemical; details: read-out: FLVK* (% inhibition)
CDK4/Cyclin D3 complex [8] = target: T4, CDK4/Cyclin D3 complex; assay: biochemical; details: read-out: CDK4* (% inhibition @ 5 µM)
[9] = Isomer stability under assay conditions; type: physicochemical; details: Z-isomer, isolated pure
Protocol: Reference Example 33(h) was prepared in the same reaction as Reference Example 33(d). […] Found: C (66.36), H (4.08), N (11.49), S (6.55).

[10] = Table 1, compound concentration 1 µM, read-out: Lck-P* (% inhibition)
[11] = read-out: CDK4 * (Ki, cell in µM), Table 1
[12] = Table 1, compound concentration 1 µM

**Q.** Which “% remain (HLM, 2 h)” value (in vitro) does the source give for “6-[2-((4-Aminobenzyl)methylcarbamoyl)phenylsulfanyl]-3-E-[2-(pyridin-2-yl)ethenyl]-1H-indazole [Reference Example 35(I)]” here?
**A.** The value was 5%.

**Q.** And the “FLVK ** (% inhibition)” value ([1]; listed as 35(l), 0.05 µM)?
**A.** Its value is 100% and 99%.

**Q.** For `C(=C\c1n[nH]c2cc(Oc3ccccc3)ccc12)/c1ccccc1` [8(a), 3-(E-styryl)-6-phenoxy-1H-indazole], which inhibition at 1 µM (LCK tyrosine kinase; [10]) is on record?
**A.** Its inhibition at 1 µM is 43%.

**Q.** And the Ki (CDK2/Cyclin A complex)?
**A.** The Ki was greater than 100 µM.

**Q.** And the inhibition at 10 µM (human FAK (FAKcd409))?
**A.** Its inhibition at 10 µM is 3%.

**Q.** What about the inhibition at 10 µM [2] of the same compound?
**A.** Its inhibition at 10 µM is 55%.

**Q.** What about the IC50 ([3]; Homo sapiens, HUVEC) of the same compound?
**A.** The IC50 was greater than 1000 nM.

**Q.** And the Ki (CDK4/Cyclin D3 complex [4]; [11])?
**A.** Its Ki is greater than 100 µM.

**Q.** Which inhibition at 1 µM (LCK tyrosine kinase; [10]) does the source give for `C(=C\c1n[nH]c2cc(Sc3ccccc3)ccc12)/c1ccccc1` [8(c), 3-(E-styryl)-6-phenylsulfanyl-1H-indazole] here?
**A.** Its inhibition at 1 µM is 34%.

**Q.** What about the Ki (CDK2/Cyclin A complex) of the same compound?
**A.** The Ki was greater than 100 µM.

**Q.** And the inhibition at 10 µM (human FAK (FAKcd409))?
**A.** Its inhibition at 10 µM is 15%.

**Q.** And the inhibition at 10 µM [2]?
**A.** Its inhibition at 10 µM is 31%.

**Q.** And the IC50 ([3]; Homo sapiens, HUVEC, Table 1)?
**A.** The IC50 was 280 nM.

**Q.** And the Ki (CDK4/Cyclin D3 complex [4]; [11])?
**A.** Its Ki is greater than 100 µM.

**Q.** With `Oc1ccc(-c2ccc3c(-c4nc5ccccc5[nH]4)n[nH]c3c2)c(Oc2ccccc2)c1` [24(g), 3-1H-Benzoimidazol-2-yl-6-(2-phenoxy-4-hydroxyphenyl)-1H-indazole] as the compound, how does the IC50 (HCT-116) read?
**A.** The IC50 was greater than 5000 nM.

**Q.** For `O=C(c1cccc(NC(=O)c2ccccn2)c1)c1ccc2c(/C=C/c3ccccn3)n[nH]c2c1` [41 (aa)], which “FGF-P* (% inhibition)” value (human FGF-R1; [12]) is on record?
**A.** Its value is 37%.

**Q.** What about the “Lck-P* (% inhibition)” value (LCK tyrosine kinase; [12]) of the same compound?
**A.** Its value is 49%.

**Q.** And the IC50 ([3]; Table 1)?
**A.** Its IC50 is 1 nM.

**Q.** And the “% remain (HLM, 2 h)” value (in vitro)?
**A.** Its value is 100%.

**Q.** And the Ki [1]?
**A.** Its Ki is 0.11 nM.

**Q.** And the AUCleast ([5]; ip, 25 mg/kg)?
**A.** Its AUCleast is 6659 ng·h/mL.

**Q.** And the T1/2 ([5]; ip, 25 mg/kg)?
**A.** The T1/2 was 2.1 h.

**Q.** What about the “Cmin (7 hr conc.)” value ([5]; po, 50 mg/kg, 7 h) of the same compound?
**A.** Its value is 5 ng/mL.

**Q.** And the AUCleast ([5]; po, 50 mg/kg)?
**A.** The AUCleast was 289 ng·h/mL.

**Q.** What about the T1/2 ([5]; po, 50 mg/kg) of the same compound?
**A.** The T1/2 was 0.9 h.

**Q.** With `CCn1nc(C)cc1C(=O)Nc1cc(C(=O)c2ccc3c(/C=C/c4ccccn4)n[nH]c3c2)c(C)cc1C` [41(11)] as the compound, how does the Ki (human FGF-R1; Table 1, read-out: FGF-P* (Ki)) read?
**A.** The Ki was 11 nM.

**Q.** And the “Lck-P* (% inhibition)” value (LCK tyrosine kinase; [12])?
**A.** The value was 18%.

**Q.** And the “% remain (HLM, 2 h)” value (in vitro)?
**A.** The value was 85%.

**Q.** And the “FLVK ** (% inhibition)” value [1]?
**A.** The value was 57%.

**Q.** Which Ki [1] does the source give for `O=C(Nc1cccc(C(=O)c2ccc3c(/C=N/n4cnnc4)n[nH]c3c2)c1)c1ccccc1` [Example 42(e), 6-(3-benzamidobenzoyl)-3-E-[N-(4H-1,2,4-triazol-4-yl)iminomethyl]-1H-indazole] here?
**A.** Its Ki is 1.1 nM.

**Q.** What does the source list for `CCOCc1cc(O)c(OC)cc1-c1ccc2c(-c3nc4ccccc4[nH]3)n[nH]c2c1` [Reference Example 24(l), 3-1H-Benzoimidazol-2-yl-6-(2-(ethoxymethyl)-5-methoxy-4-hydroxy-phenyl)-1H-indazole]?
**A.** inhibition at 20 µM (human CHK1 (FL-CHK1); read-out: CHK1* (% inhibition @ 20 µM)): 62%; Ki (CDK4/Cyclin D3 complex [4]; read-out: CDK4* (Ki), Table 2): 0.013 µM; Ki (CDK4/Cyclin D3 complex [4]; read-out: CDK4* (Ki), Table 2, listed as 24(1)): 0.071 µM

**Q.** With `CNC(=O)c1ccc2[nH]c(-c3n[nH]c4cc(-c5ccc(O)cc5OC)ccc34)nc2c1` [Reference Example 25(g), 3-(5-methylcarbamoyl-1H-benzoimidazol-2-yl)-6-(2-methoxy-4-hydroxyphenyl)-1H-indazole] as the compound, how does the inhibition at 1 µM (human FGF-R1; read-out: FGF* (% inhibition)) read?
**A.** The inhibition at 1 µM was 82%.

**Q.** And the inhibition at 1 µM (LCK tyrosine kinase; read-out: Lck* (% inhibition))?
**A.** The inhibition at 1 µM was 76%.

**Q.** And the inhibition at 1 µM (human CHK1 (FL-CHK1); read-out: CHK1* (% inhibition))?
**A.** Its inhibition at 1 µM is 21%.

**Q.** What about the IC50 (HCT-116) of the same compound?
**A.** The IC50 was 2000 nM.

**Q.** Which IC50 (HCT-116) does the source give for `COc1cc(O)ccc1-c1ccc2c(-c3nc4ccc(S(N)(=O)=O)cc4[nH]3)n[nH]c2c1` [Reference Example 25(i), 3-(5-Aminosulfonyl-1H-benzoimidaxol-2-yl)-6-(2-methoxy-4-hydroxy-phenyl)-1H-indazole] here?
**A.** The IC50 was greater than 5000 nM.

**Q.** Which inhibition at 10 µM [6] does the source give for `C(=C\c1n[nH]c2cc(-c3ccccc3)ccc12)/c1ccccc1` [Reference Example 27(a), 6-phenyl-3-E-styryl-1H-indazole] here?
**A.** Its inhibition at 10 µM is 37%.

**Q.** What about the inhibition at 1 µM [7] of the same compound?
**A.** Its inhibition at 1 µM is 71%.

**Q.** What about the inhibition at 5 µM (CDK4/Cyclin D3 complex [8]) of the same compound?
**A.** Its inhibition at 5 µM is 28%.

**Q.** Which “isomerization under assay conditions” value [9] does the source give for `O=C(Nc1cccc(Cl)c1)c1ccccc1Sc1ccc2c(/C=C\c3ccccn3)n[nH]c2c1` [Reference Example 33(h), 6-[2-(3-chlorophenylcarbamoyl)phenysulfanyl]-3-Z-[2-(pyridin-2-yl)ethenyl]-1H-indazole] here?
**A.** The value was “found to isomerize to Reference Example 33(d) under assay conditions”.
